Experiments:
[1] = wn = mass fraction of the nth substance listed; conditions: 101 kPa, Liquid, Vibrating tube method
[2] = refractive index (Na D-line) (dimensionless); wn = mass fraction of the nth substance listed; conditions: 101 kPa, Liquid, Standard Abbe refractometry

C[P+](c1ccccc1)(c1ccccc1)c1ccccc1.[Br-] [methyltriphenylphosphonium bromide] + CN(CCO)CCO
Conditions | mass density, w1 = 0.1578 [kg/m3] | mass density, w1 = 0.2306 [kg/m3] | mass density, w1 = 0.2998 [kg/m3] | refractive index, w1 = 0.1578 | refractive index, w1 = 0.2306 | refractive index, w1 = 0.2998
[1], 293.15 K | 1086.84 | 1106.7 | 1124.09 | – | – | –
[1], 298.15 K | 1083.1 | 1102.99 | 1120.4 | – | – | –
[1], 303.15 K | 1079.34 | 1099.26 | 1116.71 | – | – | –
[1], 308.15 K | 1075.59 | 1095.54 | 1113.03 | – | – | –
[1], 313.15 K | 1071.84 | 1091.82 | 1109.36 | – | – | –
[1], 318.15 K | 1068.08 | 1088.09 | 1105.69 | – | – | –
[1], 323.15 K | 1064.32 | 1084.36 | 1102.01 | – | – | –
[1], 328.15 K | 1060.54 | 1080.63 | 1098.34 | – | – | –
[1], 333.15 K | 1056.77 | 1076.9 | 1094.66 | – | – | –
[1], 338.15 K | 1052.98 | 1073.17 | 1090.99 | – | – | –
[1], 343.15 K | 1049.19 | 1069.43 | 1087.31 | – | – | –
[1], 348.15 K | 1045.47 | 1065.72 | 1083.63 | – | – | –
[1], 353.15 K | 1041.65 | 1062.05 | 1080.06 | – | – | –
[2], 293.15 K | – | – | – | 1.49579 | 1.50867 | 1.52077
[2], 298.15 K | – | – | – | 1.49402 | 1.50694 | 1.51904
[2], 303.15 K | – | – | – | 1.49224 | 1.50517 | 1.51732
[2], 308.15 K | – | – | – | 1.49037 | 1.5034 | 1.51557
[2], 313.15 K | – | – | – | 1.48865 | 1.50162 | 1.51383
[2], 318.15 K | – | – | – | 1.4869 | 1.49961 | 1.51212
[2], 323.15 K | – | – | – | 1.48502 | 1.49793 | 1.5103
[2], 328.15 K | – | – | – | 1.48313 | 1.49584 | 1.5083
[2], 333.15 K | – | – | – | 1.48114 | 1.4942 | 1.50644
[2], 338.15 K | – | – | – | 1.47935 | 1.49244 | 1.50466
[2], 343.15 K | – | – | – | 1.47746 | 1.49064 | 1.50288

Reference: the NIST ThermoML archive (doi:10.1016/j.jct.2018.12.014)
